In this assay the test system is cyclodextrin glucanotransferase (γ-CGTase, EC 2.4.1.19) of Brevibacterium sp. No. 9605. The class given is biochemical. As to the method: (8) Activity measurement: In the measurements of the enzlanological properties described above, enzyme activity was measured by the following method. A 0.05 ml portion of an aqueous solution of the enzyme was added to 0.5 ml of a substrate solution (1.5% by weight soluble starch in 0.1M Atkins & Pantin buffer, pH 10.0) and incubated at 40° C. for 30 minutes. After adding 5 ml of 0.1N hydrochloric acid to terminate the reaction, a 0.5 ml portion of the reaction mixture was taken out and mixed with 5 ml of an iodine solution (0.005% iodine in 0.05% potassium iodide solution) to measure decrease in the absorbance at […]. One unit of the activity was defined as the amount of enzyme which decreases 1% of the absorbance at 660 nm within 1 minute under these conditions.

Where [1] appears, read: enzyme treated with 1 mM inhibitor at 40° C. for 10 minutes in 0.1M H3BO3·KCl-NaOH buffer (pH 8.0), control 100, activity on soluble starch, iodine method.

Read-outs that look alike come from different tables or passages of the source.

As to `O=C(O)CI` [MIA, monoiodoacetic acid], for the setting “pH 8”, the “Residual Activity (%)” value amounted to 82%. On to `CCN1C(=O)C=CC1=O` [NEM, N-ethylmaleimide], for which the “Residual Activity (%)” value under setting [1] is on record as 84%. Regarding `O=C(O)c1cc[c]([Hg][Cl])cc1` [PCMB, p-chloromercuribenzoic acid], the “Residual Activity (%)” value under setting [1] was 83%.

The values above are taken from patent US5707833A, “Process of making cyclodextrin glucanotransferase with brevibacterium” (priority 1993, dated 1998).
